The numbers were not newly measured in patent US20110130434A1, “MODIFIED RELEASE RAMIPRIL COMPOSITIONS AND USES THEREOF” (Panacea Biotec Ltd., priority 2008, published 2011), which cites them from elsewhere.

The target in data set [1] is ACE (Homo sapiens, UniProt P12821).
The conditions of data set [2]: after oral administration of ramipril.

ACE, sequence (P12821 30-1306, species assumed): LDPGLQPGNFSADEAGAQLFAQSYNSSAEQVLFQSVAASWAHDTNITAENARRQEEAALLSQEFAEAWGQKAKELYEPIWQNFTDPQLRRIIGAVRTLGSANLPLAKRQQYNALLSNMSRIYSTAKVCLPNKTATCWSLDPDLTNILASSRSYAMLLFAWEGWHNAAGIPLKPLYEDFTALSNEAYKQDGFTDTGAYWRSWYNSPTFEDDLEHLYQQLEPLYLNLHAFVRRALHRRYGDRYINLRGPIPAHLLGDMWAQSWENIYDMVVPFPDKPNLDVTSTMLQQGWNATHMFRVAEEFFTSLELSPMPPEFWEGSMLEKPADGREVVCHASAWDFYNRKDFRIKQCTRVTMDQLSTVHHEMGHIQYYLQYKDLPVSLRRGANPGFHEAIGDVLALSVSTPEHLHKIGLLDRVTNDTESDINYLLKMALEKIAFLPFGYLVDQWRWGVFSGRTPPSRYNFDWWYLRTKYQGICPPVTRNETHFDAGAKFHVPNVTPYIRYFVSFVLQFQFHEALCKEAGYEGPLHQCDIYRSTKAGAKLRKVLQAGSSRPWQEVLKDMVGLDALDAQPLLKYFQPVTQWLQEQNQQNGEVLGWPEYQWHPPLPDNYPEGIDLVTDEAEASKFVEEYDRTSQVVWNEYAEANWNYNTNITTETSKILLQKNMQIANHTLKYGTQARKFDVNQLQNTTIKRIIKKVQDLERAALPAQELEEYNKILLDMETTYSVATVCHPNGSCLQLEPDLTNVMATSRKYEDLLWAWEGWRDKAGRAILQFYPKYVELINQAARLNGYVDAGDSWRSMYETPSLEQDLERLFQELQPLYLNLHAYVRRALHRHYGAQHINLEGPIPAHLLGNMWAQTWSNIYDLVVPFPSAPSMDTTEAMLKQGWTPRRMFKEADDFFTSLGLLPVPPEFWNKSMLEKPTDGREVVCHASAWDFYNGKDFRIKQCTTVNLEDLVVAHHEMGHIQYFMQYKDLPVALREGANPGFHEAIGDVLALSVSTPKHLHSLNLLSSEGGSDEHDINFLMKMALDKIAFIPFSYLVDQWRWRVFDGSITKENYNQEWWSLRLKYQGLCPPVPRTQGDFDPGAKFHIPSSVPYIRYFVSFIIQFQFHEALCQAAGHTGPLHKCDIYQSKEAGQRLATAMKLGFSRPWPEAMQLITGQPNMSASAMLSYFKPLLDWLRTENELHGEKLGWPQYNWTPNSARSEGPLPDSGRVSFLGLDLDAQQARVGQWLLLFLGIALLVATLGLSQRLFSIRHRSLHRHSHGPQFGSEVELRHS

Take `C[C@H](N[C@@H](CCc1ccccc1)C(=O)O)C(=O)N1[C@H](C(=O)O)C[C@@H]2CCC[C@@H]21` [ramiprilat]: the “ACE inhibitory activity relative to ramipril” value in data set [1] is listed as 6 times. In data set [2], the half life is 13 to 17 h.
